In brackets after ≈: the same amount, converted by molar mass. Square brackets hold non-standard residues; d marks the D form. Peptide text beside a SMILES is read from it. * marks the point of attachment. Stearoyl = CCCCCCCCCCCCCCCCCC(=O)*; 12Ado = NCCCCCCCCCCCC(=O)O; Aoc = NCCCCCCCC(=O)O; Ahp = NCCCCCCC(=O)O; Ahx = NCCCCCC(=O)O; Ava = NCCCCC(=O)O; GABA = NCCCC(=O)O
Columns and labels:
PLC-γ1 = biological target: T1, PLC-γ1 (Bos taurus, UniProt P08487); test: PLC-inhibiting activity (release of [3H]inositol phosphate from [3H]PIP2); format: biochemical, bovine; conditions: 37°C, 10 minutes, pH 6.0, read-out: Inhibition rate (%)
T1 construct: A sample of PLC-γ1 was prepared from bovine thymus; from tissue; host or cells: bovine thymus
T1 sequence (P08487 1-1291): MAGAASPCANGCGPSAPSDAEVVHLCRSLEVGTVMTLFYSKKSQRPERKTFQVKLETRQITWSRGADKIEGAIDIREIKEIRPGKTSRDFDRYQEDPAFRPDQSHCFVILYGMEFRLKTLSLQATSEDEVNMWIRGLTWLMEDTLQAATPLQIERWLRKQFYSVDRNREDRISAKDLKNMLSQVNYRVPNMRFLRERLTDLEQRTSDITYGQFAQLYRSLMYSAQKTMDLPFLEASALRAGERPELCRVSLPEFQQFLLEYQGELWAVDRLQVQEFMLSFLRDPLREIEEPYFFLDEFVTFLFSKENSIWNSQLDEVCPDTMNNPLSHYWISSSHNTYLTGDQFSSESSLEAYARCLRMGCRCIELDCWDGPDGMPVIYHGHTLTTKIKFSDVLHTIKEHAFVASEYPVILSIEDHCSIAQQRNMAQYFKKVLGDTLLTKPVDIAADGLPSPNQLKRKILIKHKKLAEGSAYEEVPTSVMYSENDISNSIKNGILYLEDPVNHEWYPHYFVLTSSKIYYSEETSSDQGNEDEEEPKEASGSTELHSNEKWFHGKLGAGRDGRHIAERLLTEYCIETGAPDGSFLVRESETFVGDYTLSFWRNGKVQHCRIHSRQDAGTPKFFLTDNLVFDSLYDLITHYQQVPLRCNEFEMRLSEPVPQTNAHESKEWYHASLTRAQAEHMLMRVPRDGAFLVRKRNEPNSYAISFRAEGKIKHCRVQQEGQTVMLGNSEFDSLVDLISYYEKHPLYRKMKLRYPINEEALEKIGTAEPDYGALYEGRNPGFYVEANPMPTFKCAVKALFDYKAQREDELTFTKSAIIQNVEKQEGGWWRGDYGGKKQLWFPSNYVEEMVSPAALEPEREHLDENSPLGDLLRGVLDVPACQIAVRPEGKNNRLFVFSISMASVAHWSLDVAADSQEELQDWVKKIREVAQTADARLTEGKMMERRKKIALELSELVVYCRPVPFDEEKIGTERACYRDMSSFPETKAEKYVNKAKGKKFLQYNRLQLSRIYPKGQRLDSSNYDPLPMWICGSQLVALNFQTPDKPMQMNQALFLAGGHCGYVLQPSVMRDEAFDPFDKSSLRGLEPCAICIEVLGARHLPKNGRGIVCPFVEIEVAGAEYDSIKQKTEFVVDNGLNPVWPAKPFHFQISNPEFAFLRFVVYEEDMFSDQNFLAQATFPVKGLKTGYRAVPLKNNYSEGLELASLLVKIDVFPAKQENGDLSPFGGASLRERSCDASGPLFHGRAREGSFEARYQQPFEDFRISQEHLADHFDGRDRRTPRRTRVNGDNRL
Protocol: A sample of PLC-γ1 was prepared from bovine thymus according to the method described in Y. Honma et al., Biochem. J., 269, 13 (1990). A solution having the composition shown in Table 2 below was prepared on ice and was heated to 37°C to start reaction. After incubation for 10 minutes, 2 ml of a chloroform/methanol mixture (2:1, v/v) was added thereto to stop the reaction. The resulting inositol phosphate was extracted with 0.5 ml of 1 N hydrochloric acid. The extract was separated into two liquid phases by centrifugation (2000 x g, 3 minutes), and the amount of ^3H contained in the supernatant (0.7 ml) was measured with a scintillation counter. Table 2 [table] The inhibition rate (X) was calculated according to the following equation: X (%) = (A-C) / (B-C) x 100 [formula] where A is the obtained value of specific radioactivity, B is the value of specific radioactivity obtained when the same amount of water was added instead of the aqueous solution of the test peptide, and C is the value of specific radioactivity obtained when the same amount of water was added instead of the sample and the aqueous solution of the test peptide.

KMS-4 cells = test: Cell growth-inhibiting activity (BrdU incorporation, cell growth detection kit); format: cell-based; conditions: culturing with peptide for 17 hours
Protocol: The cell growth-inhibiting activity was determined using a cell growth detection kit (Amersham) in the following manner. KMS-4 cells [M. Nanba et al, International Journal of Cancer, 32, 697 (1983)] were suspended in DMEM medium (Nissui Pharmaceutical Co., Ltd.) containing 10% fetal calf serum at a density of 1-2 x 10^4 cells/ml, and 1 ml of the cell suspension was put into each well of a 24-well plate (Corning Inc.). The cells were cultured in a CO2 incubator (37°C, 5% CO2) for 2 days. Then, the medium was replaced with a fresh DMEM medium containing 10% fetal calf serum, and the test peptide was added thereto, followed by culturing for 17 hours. The medium was replaced with a serum-free DMEM medium, and 0.5 ml of a solution prepared by diluting labeled reagent 5-bromo-2'-deoxyuridine (BrdU) and 5-fluoro-2'-deoxyuridine (FdU) (10:1) 1000-fold with the same medium was added to each well, followed by culturing for 2 hours. Then the medium was removed, and the cells were immobilized with an acetic acid/ethanol solution. The immobilized cells were stained according to the method for the cell growth detection kit of Amersham, and then further stained with a 1% Giemsa solution (Merck & Co., Inc.). The number of cells which incorporated BrdU and the total number of cells within one field of vision of a microscope (approximately 200 cells) were determined, and the proportion (%) of stained cells per field of vision was calculated. The above procedure was repeated 10 times, and the average value thereof was defined as the cell growth activity (%). The cell growth-inhibiting activity was calculated in the following manner. That is, the cell growth inhibition rate was calculated according to the following equation: X (%) = (1-B/A) x 100 [formula] where A is the growth activity when no peptide was added, and B is the growth activity when the test peptide was added.

[1] = tested on: Proteus vulgaris ATCC 6897; format: cell-based; conditions: ATCC 6897, pH 7
Protocol: (§1) The antibacterial activity was determined by the agar dilution method using a medium (pH 7.0) which comprises 3 g/l Bacto-tryptone (Difco Laboratories), 1 g/l meat extract, 1 g/l glucose and 16 g/l agar.

[2] = tested on: Pseudomonas aeruginosa Bin H No. 1; format: cell-based; conditions: Bin H No. 1, pH 7
Protocol: as §1

[3] = tested on: Bacillus subtilis No. 10707; format: cell-based; conditions: No. 10707, pH 7
Protocol: as §1

| MIC (µg/ml) PV [1] | MIC (µg/ml) PA [2] | MIC (µg/ml) BS [3] | SMILES | Inhibition rate (%) (KMS-4 cells; Concentration 1 µM) | further results |
| --- | --- | --- | --- | --- | --- |
| 83 µg/mL (≈ 51.2 µM) | 167 µg/mL (≈ 103 µM) | 167 µg/mL (≈ 103 µM) | CSCC[C@H](NC(=O)[C@H](CCCCN)NC(=O)[C@H](CCCNC(=N)N)NC(=O)[C@H](Cc1ccc(O)cc1)NC(=O)[C@H](CC(C)C)NC(C)=O)C(=O)N[C@@H](CCCNC(=N)N)C(=O)N[C@@H](CC(C)C)C(=O)N[C@@H](CCCNC(=N)N)C(=O)N[C@@H](Cc1ccc(O)cc1)C(=O)N1CCC[C@H]1C(=O)N[C@H](C(=O)NCCCC(N)=O)C(C)C [Compound (I-1), CH3CO-Leu-Tyr-Arg-Lys-Met-Arg-Leu-Arg-Tyr-Pro-Val-NH-(CH2)3CONH2] (Ac-LYRKMRLRYPV[GABA]-NH2) | 10% | inhibition at 123 µM (PLC-γ1; Concentration 123 µM (aqueous solution of test peptide provided for the test)): 85% |
| 77 µg/mL (≈ 47.1 µM) | 77 µg/mL (≈ 47.1 µM) | 77 µg/mL (≈ 47.1 µM) | CSCC[C@H](NC(=O)[C@H](CCCCN)NC(=O)[C@H](CCCNC(=N)N)NC(=O)[C@H](Cc1ccc(O)cc1)NC(=O)[C@H](CC(C)C)NC(C)=O)C(=O)N[C@@H](CCCNC(=N)N)C(=O)N[C@@H](CC(C)C)C(=O)N[C@@H](CCCNC(=N)N)C(=O)N[C@@H](Cc1ccc(O)cc1)C(=O)N1CCC[C@H]1C(=O)N[C@H](C(=O)NCCCCC(N)=O)C(C)C [Compound (I-2), CH3CO-Leu-Tyr-Arg-Lys-Met-Arg-Leu-Arg-Tyr-Pro-Val-NH-(CH2)4CONH2] (Ac-LYRKMRLRYPV[Ava]-NH2) | 68% | inhibition at 122 µM (PLC-γ1; Concentration 122 µM (aqueous solution of test peptide provided for the test)): 75% |
| 175 µg/mL (≈ 106 µM) | 175 µg/mL (≈ 106 µM) | 88 µg/mL (≈ 53.4 µM) | CSCC[C@H](NC(=O)[C@H](CCCCN)NC(=O)[C@H](CCCNC(=N)N)NC(=O)[C@H](Cc1ccc(O)cc1)NC(=O)[C@H](CC(C)C)NC(C)=O)C(=O)N[C@@H](CCCNC(=N)N)C(=O)N[C@@H](CC(C)C)C(=O)N[C@@H](CCCNC(=N)N)C(=O)N[C@@H](Cc1ccc(O)cc1)C(=O)N1CCC[C@H]1C(=O)N[C@H](C(=O)NCCCCCC(N)=O)C(C)C [Compound (I-3), CH3CO-Leu-Tyr-Arg-Lys-Met-Arg-Leu-Arg-Tyr-Pro-Val-NH-(CH2)5CONH2] (Ac-LYRKMRLRYPV[Ahx]-NH2) |  | inhibition at 121 µM (PLC-γ1; Concentration 121 µM (aqueous solution of test peptide provided for the test)): 77%; Inhibition rate (%) (KMS-4 cells; Concentration 6 µM): 53% |
| 129 µg/mL (≈ 77.6 µM) | 129 µg/mL (≈ 77.6 µM) | 129 µg/mL (≈ 77.6 µM) | CSCC[C@H](NC(=O)[C@H](CCCCN)NC(=O)[C@H](CCCNC(=N)N)NC(=O)[C@H](Cc1ccc(O)cc1)NC(=O)[C@H](CC(C)C)NC(C)=O)C(=O)N[C@@H](CCCNC(=N)N)C(=O)N[C@@H](CC(C)C)C(=O)N[C@@H](CCCNC(=N)N)C(=O)N[C@@H](Cc1ccc(O)cc1)C(=O)N1CCC[C@H]1C(=O)N[C@H](C(=O)NCCCCCCC(N)=O)C(C)C [Compound (I-4), CH3CO-Leu-Tyr-Arg-Lys-Met-Arg-Leu-Arg-Tyr-Pro-Val-NH-(CH2)6CONH2] (Ac-LYRKMRLRYPV[Ahp]-NH2) |  | inhibition at 120 µM (PLC-γ1; Concentration 120 µM (aqueous solution of test peptide provided for the test)): 89%; Inhibition rate (%) (KMS-4 cells; Concentration 25 µM): 47% |
|  | 163 µg/mL (≈ 97.2 µM) | 81 µg/mL (≈ 48.3 µM) | CSCC[C@H](NC(=O)[C@H](CCCCN)NC(=O)[C@H](CCCNC(=N)N)NC(=O)[C@H](Cc1ccc(O)cc1)NC(=O)[C@H](CC(C)C)NC(C)=O)C(=O)N[C@@H](CCCNC(=N)N)C(=O)N[C@@H](CC(C)C)C(=O)N[C@@H](CCCNC(=N)N)C(=O)N[C@@H](Cc1ccc(O)cc1)C(=O)N1CCC[C@H]1C(=O)N[C@H](C(=O)NCCCCCCCC(N)=O)C(C)C [Compound (I-5), CH3CO-Leu-Tyr-Arg-Lys-Met-Arg-Leu-Arg-Tyr-Pro-Val-NH-(CH2)7CONH2] (Ac-LYRKMRLRYPV[Aoc]-NH2) | 70% | inhibition at 119 µM (PLC-γ1; Concentration 119 µM (aqueous solution of test peptide provided for the test)): 83% |
|  | 150 µg/mL (≈ 86.5 µM) |  | CSCC[C@H](NC(=O)[C@H](CCCCN)NC(=O)[C@H](CCCNC(=N)N)NC(=O)[C@H](Cc1ccc(O)cc1)NC(=O)[C@H](CC(C)C)NC(C)=O)C(=O)N[C@@H](CCCNC(=N)N)C(=O)N[C@@H](CC(C)C)C(=O)N[C@@H](CCCNC(=N)N)C(=O)N[C@@H](Cc1ccc(O)cc1)C(=O)N1CCC[C@H]1C(=O)N[C@H](C(=O)NCCCCCCCCCCCC(N)=O)C(C)C [Compound (I-7), CH3CO-Leu-Tyr-Arg-Lys-Met-Arg-Leu-Arg-Tyr-Pro-Val-NH-(CH2)11CONH2] (Ac-LYRKMRLRYPV[12Ado]-NH2) | 39% | inhibition at 114 µM (PLC-γ1; Concentration 114 µM (aqueous solution of test peptide provided for the test)): 82% |
|  | 106 µg/mL (≈ 54.1 µM) |  | CCCCCCCCCCCCCCCCCC(=O)N[C@@H](CC(C)C)C(=O)N[C@@H](Cc1ccc(O)cc1)C(=O)N[C@@H](CCCNC(=N)N)C(=O)N[C@@H](CCCCN)C(=O)N[C@@H](CCSC)C(=O)N[C@@H](CCCNC(=N)N)C(=O)N[C@@H](CC(C)C)C(=O)N[C@@H](CCCNC(=N)N)C(=O)N[C@@H](Cc1ccc(O)cc1)C(=O)N1CCC[C@H]1C(=O)N[C@H](C(=O)NCCCCCCCCCCCC(N)=O)C(C)C [Compound (I-8), C17H35CO-Leu-Tyr-Arg-Lys-Met-Arg-Leu-Arg-Tyr-Pro-Val-NH-(CH2)11CONH2] (Stearoyl-LYRKMRLRYPV[12Ado]-NH2) |  | inhibition at 20 µM (PLC-γ1; Concentration 20 µM (aqueous solution of test peptide provided for the test)): 76% |

— patent EP0760376A1, “PEPTIDES INHIBITING PHOSPHOLIPASE C” (Kyowa Hakko Kogyo Co., Ltd., priority 1995, dated 1996)
